What was measured:
Type in all cases: cell-based, human
[1] = tested on: NMDA-type glutamate receptors of differentiated hES-NPCs; experiment: Whole-cell patch-clamp recording of ligand-gated currents; conditions: for effect on glutamate-evoked currents: voltage clamp, holding potential −60 mV, after 2 to 2.5 weeks in culture, 100 μM D-APV
differentiated hES-NPCs = experiment: Whole-cell patch-clamp recording of GABA-evoked currents; conditions: 2.5 weeks in culture
hESCs = experiment: Spheroid bodies formation in suspension medium; conditions: addition to the suspension medium (2 mM)
Protocol: Spheroid bodies formation: the small clusters (10-100 cells) of hESCs were grown in polypropylene dishes (Ted Pella) in Suspension Medium (1:1 ratio of DMEM/F12:neurobasal medium with N2+B27 supplements, 20 ng/ml insulin 20 ng/ml bFGF, 20 ng/ml EGF and 2 mM N-acetyl cysteine (NAC)). The spheres were grown for 4-6 days, with a change in medium every alternate day.

[2] = tested on: glutamate receptors of differentiated hES-NPCs cultures; experiment: Calcium imaging; conditions: 4-5 week old cultures; NMDA followed by glutamate, 37° C.
Protocol: Calcium Imaging. Measurement of intracellular free Ca2+ ([Ca2+]i) in differentiated HNSC cultures was performed using Fura-2-AM or Fluo-3-AM as described earlier (Tenneti et al., J Neurochem 71: 946-59, 1998) with the minor modification. Briefly, ES derived hNPC cells were washed twice with recording medium containing 150 mM NaCl, 3 mM KCl, 2 mM CaCl2, 5 mM glucose, 10 μM glycine, and 10 mM HEPES (pH 7.4) and incubated generally at 37° C. in recording medium containing 30 nM Pluronic F-127 and 5 μM Fluo-3 AM for 30 minor 10 μMFura-2-AM for 60 min (acetoxymethyl esters; Molecular Probes). Cultures were then washed three times with recording medium, followed by settlement at 37° C. for at least 30 min. Cells were invariably used within 1 hr after these procedures for observation. During the experiments, cells were kept in a perfusion chamber on the microscope stage at room temperature (Fluo-3) or 37° C. (Fura-2 experiments). Imaging was done using a Sutter DG-4 fast wavelength switcher coupled to a Zeiss Axiovert microscope with a 20×, 0.5 NA, objective. […] Changes in fluorescence intensity were calculated by dividing the measured fluorescence intensity (F; ratio of 340/380 nm for Fura-2) by the measured average baseline fluorescence intensity (F/F0) Excitation was achieved using standard FITC or Fura-2 filter sets (Chroma technologies).

[3] = tested on: Voltage-gated Na+ currents of differentiated hES-NPCs

N[C@H](CCCP(=O)(O)O)C(=O)O [D-APV, D-(−)-2 amino-5-phosphonovaleric acid]
effect on glutamate-evoked currents [1]: partially blocked
effect on glutamate-evoked currents ([1]; listed as APV): partially inhibited

NCCCC(=O)O [GABA, γ-aminobutyric acid]
cells with agonist-evoked currents (cells of cells recorded) (differentiated hES-NPCs): 4 of 29

CC(=O)N[C@@H](CS)C(=O)O [NAC, N-acetyl cysteine]
morphology of spheroid bodies (hESCs): healthier morphology of spheroid bodies

CN[C@H](CC(=O)O)C(=O)O [NMDA, N-methyl-D-aspartate]
[Ca2+] response of fura-2-loaded cells [2]: Robust responses

NC1=N[C@H](O)[C@H]2[C@H]3O[C@]4(O)O[C@@H]([C@@H](O)[C@@]2(N1)[C@@H]4O)[C@]3(O)CO [TTX, tetrodotoxin]
effect on fast Na+ currents [3]: reversibly blocked

N[C@@H](CCC(=O)O)C(=O)O [glutamate]
cells that manifest agonist-evoked currents ([1]; after 2 weeks in culture): approximately 30%
[Ca2+] response of fura-2-loaded cells [2]: Robust responses
